Test results published in ChEMBL document CHEMBL1149740, “New phenolic glucosides from the leaves of Eurya tigang” (J Nat Prod, 1992).
Values after ≈ are worked out from the molar mass of the structure shown.

What was measured:
[1] = Antitumor activity against mouse keratinocytes; assay type: cell-based; details: Keratinocyte
T-24 = assay: Antitumor activity against human T24 cells; assay type: functional, cell-based

| SMILES | IC50 [1] | IC50 (T-24) |
| --- | --- | --- |
| O=C1C=CC(O)(CCO[C@@H]2O[C@H](COC(=O)/C=C/c3ccc(O)cc3)[C@@H](O)[C@H](O)[C@H]2O)C=C1 [EUTIGOSIDE B] | 9.4 µg/mL (≈ 20.3 µM) | 31.9 µg/mL (≈ 69 µM) |
| O=C1C=CC(O)(CCO[C@@H]2O[C@H](COC(=O)/C=C/c3ccccc3)[C@@H](O)[C@H](O)[C@H]2O)C=C1 [EUTIGOSIDE C] | 12.6 µg/mL (≈ 28.2 µM) | 29.3 µg/mL (≈ 65.6 µM) |
| O=C(/C=C/c1ccc(O)cc1)OC[C@H]1O[C@@H](OCCc2ccc(O)cc2)[C@H](O)[C@@H](O)[C@@H]1O [EUTIGOSIDE A] | 9.2 µg/mL (≈ 20.6 µM) | 28.7 µg/mL (≈ 64.3 µM) |
